According to ChEMBL document CHEMBL5241112, “Insights into the recent progress in the medicinal chemistry of pyranopyrimidine analogs” (RSC Med Chem, 2022):
In brackets after ≈: the same amount, converted by molar mass.

Columns and labels:
MCF7 [1] = assay: cells; type: functional, cell-based; settings: Homo sapiens, MCF7, 96 h
HCT-116 [2] = assay: Anticancer activity against human HCT-116 cells assessed as reduction in cell viability incubated for 96 hrs by MTT assay; type: functional, cell-based; settings: HCT-116, 96 h
Pseudomonas aeruginosa [3] = assay: Antibacterial activity against Pseudomonas aeruginosa assessed as bacterial growth inhibition by broth microdilution method; type: functional
Klebsiella pneumoniae [4] = assay: Antibacterial activity against Klebsiella pneumoniae assessed as bacterial growth inhibition by broth microdilution method; type: functional
Staphylococcus aureus [5] = assay: Antibacterial activity against Staphylococcus aureus assessed as bacterial growth inhibition by broth microdilution method; type: functional
Escherichia coli [6] = assay: Antibacterial activity against Escherichia coli assessed as bacterial growth inhibition by broth microdilution method; type: functional
HepG2 = assay: Anticancer activity against human HepG2 cells assessed as reduction in cell viability; type: functional, cell-based
MCF7 [7] = assay: Anticancer activity against human MCF7 cells assessed as reduction in cell viability; type: functional, cell-based
HCT-116 [8] = assay: cells; settings: Homo sapiens
Homo sapiens = organism: Homo sapiens; assay: Anticoagulant activity in human plasma assessed as activated partial thromboplastin time at 1000 ug/ml incubated for 4 mins; type: functional; settings: dose 1000 µg/ml
MCF7 [9] = assay: cells; settings: Homo sapiens, MCF7, 48 h
HeLa = assay: Anticancer activity against human HeLa cells assessed as reduction in cell viability incubated for 48 hrs by MTT assay; type: functional, cell-based
Bacillus subtilis = assay: Antibacterial activity against Bacillus subtilis assessed as diameter of inhibition zone; type: functional
Klebsiella pneumoniae [10] = assay: Antimicrobial activity against Klebsiella pneumoniae UC57 assessed as diameter of inhibition zone at 20 mg/ml incubated for 24 hrs by disk diffusion method; type: functional; settings: read-out: DIZ
[11] = system: Mycobacterium tuberculosis; assay: Antitubercular activity against Mycobacterium tuberculosis H37Rv assessed as bacterial growth inhibition incubated for 24 hrs by MABA assay; type: functional
Staphylococcus aureus [12] = assay: Antibacterial activity against Staphylococcus aureus assessed as diameter of inhibition zone; type: functional
Salmonella typhimurium = assay: Antibacterial activity against Salmonella typhimurium assessed as diameter of inhibition zone; type: functional, Salmonella enterica subsp. enterica serovar Typhimurium
Staphylococcus aureus [13] = assay: Antimicrobial activity against Staphylococcus aureus NCTC7447 assessed as diameter of inhibition zone at 20 mg/ml incubated for 24 hrs by disk diffusion method; type: functional; settings: read-out: DIZ
Escherichia coli [14] = assay: Antimicrobial activity against Escherichia coli ATCC 14169 assessed as diameter of inhibition zone at 20 mg/ml incubated for 24 hrs by disk diffusion method; type: functional; settings: read-out: DIZ
Escherichia coli [15] = assay: Antibacterial activity against Escherichia coli assessed as diameter of inhibition zone; type: functional
Bacillus cereus = assay: Antimicrobial activity against Bacillus cereus ATCC14579 assessed as diameter of inhibition zone at 20 mg/ml incubated for 24 hrs by disk diffusion method; type: functional; settings: read-out: DIZ
Pseudomonas aeruginosa [16] = assay: Antimicrobial activity against Pseudomonas aeruginosa ATCC 27853 assessed as diameter of inhibition zone at 20 mg/ml incubated for 24 hrs by disk diffusion method; type: functional; settings: read-out: DIZ
[17] = Antioxidant activity assessed as DPPH radical scavenging activity at 12 ug incubated for 30 mins by spectrophotometric analysis; type: functional; settings: dose 12.0 µg
Staphylococcus aureus [18] = assay: Antibacterial activity against Staphylococcus aureus NCIM 2654 assessed as diameter of inhibition zone incubated for 24 hrs by agar well diffusion method; type: functional
[19] = Inhibition of porcine pancreatic alpha-amylase preincubated for 10 mins followed by substrate starch addition and measured after 10 mins by colorimetric analysis; parameters: species or system Sus scrofa
Alpha-glucosidase = Alpha-glucosidase (Saccharomyces cerevisiae S288c, UniProt P53341+P38158+P07265); assay: Inhibition of Saccharomyces cerevisiae alpha-glucosidase preincubated for 5 mins followed by PNP-GLUC substrate addition and measured after 20 mins by spectroscopic analysis; type: protein assay
Albumin = Albumin (Bos taurus, UniProt P02769); assay: […] bovine serum albumin denaturation incubated for 23 mins by UV-Visible spectrophotometry
Albumin, sequence (P02769 whole entry, the tested form may be a part): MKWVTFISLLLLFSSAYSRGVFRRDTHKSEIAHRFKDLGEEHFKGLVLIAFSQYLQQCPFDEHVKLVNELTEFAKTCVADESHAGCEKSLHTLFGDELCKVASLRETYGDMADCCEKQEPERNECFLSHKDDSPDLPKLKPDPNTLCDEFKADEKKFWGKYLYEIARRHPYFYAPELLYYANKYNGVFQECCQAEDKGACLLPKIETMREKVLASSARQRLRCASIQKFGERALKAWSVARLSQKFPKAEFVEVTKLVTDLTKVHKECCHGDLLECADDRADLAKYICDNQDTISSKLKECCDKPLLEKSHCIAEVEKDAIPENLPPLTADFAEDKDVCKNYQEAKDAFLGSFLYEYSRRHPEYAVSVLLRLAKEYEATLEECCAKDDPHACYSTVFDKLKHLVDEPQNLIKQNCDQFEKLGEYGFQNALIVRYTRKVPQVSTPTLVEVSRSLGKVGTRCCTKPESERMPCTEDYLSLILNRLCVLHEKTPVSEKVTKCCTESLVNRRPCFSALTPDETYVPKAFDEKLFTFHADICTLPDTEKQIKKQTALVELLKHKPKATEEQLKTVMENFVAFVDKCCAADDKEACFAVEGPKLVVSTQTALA

Aspergillus ochraceus = assay: Antifungal activity against Aspergillus ochraceus assessed as diameter of inhibition zone by disc diffusion method; type: functional
Penicillium chrysogenum = assay: Antifungal activity against Penicillium chrysogenum assessed as diameter of inhibition zone by disc diffusion method; type: functional
[20] = Antioxidant activity assessed as DPPH radical scavenging activity incubated for 20 mins by spectrophotometric analysis; type: functional; parameters: concentration or dose not given beside the values
[21] = Antioxidant activity assessed as hydroxyl radical scavenging activity incubated for 5 mins by spectrophotometric analysis; type: functional; parameters: concentration or dose not given beside the values

What does the source list for O=c1[nH]c2c(c(=O)[nH]1)C(c1cccs1)c1[nH]c(=S)[nH]c(=S)c1O2 (stereo not drawn)?
IC50 (MCF7 [1]): 4.95 µM; IC50 (HCT-116 [2]): 2.76 µM

With CCO/C=N/C1=C(C#N)C(c2ccccc2Cl)c2c(n(C)c(=O)n(C)c2=O)O1 (stereo not drawn) as the compound, how does the MIC (Pseudomonas aeruginosa [3]) read?
Its MIC is 6.25 µg/mL (≈ 15.6 µM).

And the MIC (Klebsiella pneumoniae [4])?
Its MIC is 6.25 µg/mL (≈ 15.6 µM).

And the MIC (Staphylococcus aureus [5])?
The MIC was 6.25 µg/mL (≈ 15.6 µM).

What about the MIC (Escherichia coli [6]) of the same compound?
The MIC was 6.25 µg/mL (≈ 15.6 µM).

What does the source list for COc1ccc(C2c3c([nH]c(=O)[nH]c3=O)Oc3ncn(-c4ccc(C)cc4)c(=N)c32)cc1 (stereo not drawn)?
IC50 (HepG2): 2.09 µM; IC50 (MCF7 [7]): 2.43 µM; IC50 (HCT-116 [8]): 2.61 µM

For CC1(C)CC(=O)C2=C(C1)Oc1ncn3nc(CC#N)nc3c1C2c1ccccc1 (stereo not drawn), which Time (Homo sapiens) is on record?
Its Time is 63.4 s.

Which results are given for O=C1Nc2c(c(=O)oc3ccccc23)C(c2cccc(O)c2)N1 (stereo not drawn)?
IC50 (MCF7 [9]): 38 µM; IC50 (HeLa): 90 µM

With Cc1cccc(-n2cnc3c(c2=N)C(c2ccccc2)C2=C(CC(C)(C)CC2=O)O3)c1 (stereo not drawn) as the compound, how does the Time (Homo sapiens) read?
Its Time is 53.7 s.

What does the source list for Cc1nc(O)c2c(n1)Oc1[nH]c(=O)[nH]c(=O)c1C2c1cccs1 (stereo not drawn)?
IC50 (MCF7 [1]): 4.48 µM; IC50 (HCT-116 [2]): 2.76 µM

For O=C1Nc2c(c(=O)oc3ccccc23)C(c2ccc(Br)cc2)N1 (stereo not drawn), which IC50 (MCF7 [9]) is on record?
The IC50 was 38 µM.

And the IC50 (HeLa)?
The IC50 was 59 µM.

For Cc1nc2c3c(ncn2n1)OC1=C(C(=O)CC(C)(C)C1)C3c1ccccc1 (stereo not drawn), which Time (Homo sapiens) is on record?
Its Time is 60.1 s.

With CN[C@@H]1[C@H](O[C@H]2[C@H](O[C@H]3[C@H](O)[C@@H](O)[C@H](N=C(N)N)[C@@H](O)[C@@H]3N=C(N)N)O[C@@H](C)[C@]2(O)C=O)O[C@@H](CO)[C@H](O)[C@H]1O [STREPTOMYCIN] as the compound, how does the “diameter of the inhibition zone (DIZ)” value (Bacillus subtilis) read?
Its value is 18 mm.

What about the zone of inhibition at 20000 µg/mL (Klebsiella pneumoniae [10]) of the same compound?
Its zone of inhibition at 20000 µg/mL is 18 mm.

What about the MIC [11] of the same compound?
The MIC was 6.25 µg/mL (≈ 10.7 µM).

What about the “diameter of the inhibition zone (DIZ)” value (Staphylococcus aureus [12]) of the same compound?
Its value is 16 mm.

And the “diameter of the inhibition zone (DIZ)” value (Salmonella typhimurium)?
Its value is 18 mm.

And the zone of inhibition at 20000 µg/mL (Staphylococcus aureus [13])?
Its zone of inhibition at 20000 µg/mL is 18 mm.

What about the zone of inhibition at 20000 µg/mL (Escherichia coli [14]) of the same compound?
The zone of inhibition at 20000 µg/mL was 18 mm.

And the “diameter of the inhibition zone (DIZ)” value (Escherichia coli [15])?
Its value is 20 mm.

What about the zone of inhibition at 20000 µg/mL (Bacillus cereus) of the same compound?
The zone of inhibition at 20000 µg/mL was 16 mm.

What about the zone of inhibition at 20000 µg/mL (Pseudomonas aeruginosa [16]) of the same compound?
The zone of inhibition at 20000 µg/mL was 16 mm.

For Cc1n[nH]c2c1C(c1cccc([N+](=O)[O-])c1)c1c([nH]c(=O)[nH]c1=O)O2 (stereo not drawn), which Activity [17] is on record?
The Activity was 90.3%.

And the “diameter of the inhibition zone (DIZ)” value (Staphylococcus aureus [18])?
The value was 12 mm.

With Cc1n[nH]c2c1C(/C=C/c1ccccc1)c1c([nH]c(=O)[nH]c1=O)O2 (stereo not drawn) as the compound, how does the Activity [17] read?
Its Activity is 90.3%.

What about the “diameter of the inhibition zone (DIZ)” value (Staphylococcus aureus [18]) of the same compound?
The value was 16 mm.

With C[C@H]1O[C@H](O[C@H]2[C@H](O)[C@@H](O)[C@@H](O[C@H]3[C@H](O)[C@@H](O)C(O)O[C@@H]3CO)O[C@@H]2CO)[C@H](O)[C@@H](O)[C@@H]1N[C@H]1C=C(CO)[C@@H](O)[C@H](O)[C@H]1O (stereo partly drawn) [ACARBOSE] as the compound, how does the IC50 [19] read?
Its IC50 is 0.214 µM.

Which results are given for O=C1Nc2c(c(=O)oc3ccccc23)C(c2ccccc2)N1 (stereo not drawn)?
IC50 (MCF7 [9]): 33 µM; IC50 (HeLa): 46 µM

For Nc1nn(-c2cc([N+](=O)[O-])ccc2[N+](=O)[O-])c2c1Oc1[nH]c(=O)[nH]c(=O)c1C2c1cccs1 (stereo not drawn), which IC50 (MCF7 [1]) is on record?
The IC50 was 3.17 µM.

What about the IC50 (HCT-116 [2]) of the same compound?
The IC50 was 2.8 µM.

With O=C(C1=C(c2ccccc2O)Oc2[nH]c(=S)[nH]c(=O)c2C1c1ccc(O)cc1)N1CCCCC1 (stereo not drawn) as the compound, how does the IC50 (Alpha-glucosidase) read?
The IC50 was 3553 µM.

What about the IC50 [19] of the same compound?
The IC50 was 27.1 µM.

And the IC50 (Albumin)?
The IC50 was 19.7 µM.

Which IC50 (MCF7 [9]) does the source give for O=C1Nc2c(c(=O)oc3ccccc23)C(c2ccc(Cl)cc2)N1 (stereo not drawn) here?
The IC50 was 33 µM.

And the IC50 (HeLa)?
The IC50 was 46 µM.

With COc1ccc2c(-c3nc4c5c(ncn4n3)OC3=C(C(=O)CC(C)(C)C3)C5c3ccccc3)cc(=O)oc2c1 (stereo not drawn) as the compound, how does the Time (Homo sapiens) read?
The Time was 55.1 s.

Which results are given for Brc1ccc2c3c(ccc2c1)Oc1ncn2ncnc2c1C3?
diameter of the inhibition zone (DIZ) (Aspergillus ochraceus): 17 mm; diameter of the inhibition zone (DIZ) (Penicillium chrysogenum): 13 mm

With COc1ccc(C2C(C(=O)N3CCCCC3)=C(c3ccccc3O)Oc3[nH]c(=S)[nH]c(=O)c32)cc1 (stereo not drawn) as the compound, how does the IC50 (Alpha-glucosidase) read?
The IC50 was 5223 µM.

What about the IC50 [19] of the same compound?
The IC50 was 16.1 µM.

And the IC50 (Albumin)?
The IC50 was 18.1 µM.

For O=c1[nH]c2c(c(=O)[nH]1)Oc1c(c(=O)oc3ccccc13)C2c1ccc(F)cc1 (stereo not drawn), which Activity [20] is on record?
The Activity was 70.1%.

And the Activity [21]?
The Activity was 62.1%.

Which IC50 (MCF7 [1]) does the source give for Nc1nc(S)nc2c1Oc1[nH]c(=O)[nH]c(=O)c1C2c1cccs1 (stereo not drawn) here?
Its IC50 is 2.65 µM.

What about the IC50 (HCT-116 [2]) of the same compound?
Its IC50 is 2.76 µM.

Which IC50 (MCF7 [9]) does the source give for O=c1[nH]cc(F)c(=O)[nH]1 [FLUOROURACIL] here?
The IC50 was 5.4 µM.

For COc1ccc(C2c3c(ncn(C)c3=N)Oc3ccc4cc(Br)ccc4c32)cc1 (stereo not drawn), which “diameter of the inhibition zone (DIZ)” value (Aspergillus ochraceus) is on record?
The value was 17 mm.

What about the “diameter of the inhibition zone (DIZ)” value (Penicillium chrysogenum) of the same compound?
Its value is 13 mm.

For CCc1ccc(-n2cnc3c(c2=N)C(c2ccccc2)C2=C(CC(C)(C)CC2=O)O3)cc1 (stereo not drawn), which Time (Homo sapiens) is on record?
The Time was 61.8 s.

For CCO/C=N/C1=C(C#N)C(c2cccs2)c2c([nH]c(=O)[nH]c2=O)O1 (stereo not drawn), which IC50 (HCT-116 [2]) is on record?
The IC50 was 2.9 µM.

With Cc1n[nH]c2c1C(c1cc([N+](=O)[O-])ccc1O)c1c([nH]c(=O)[nH]c1=O)O2 (stereo not drawn) as the compound, how does the Activity [17] read?
Its Activity is 89.1%.
